{"source": "patent US20060052390A1", "about": "“Treatment of multiple myeloma by p38 MAP kinase and proteasome inhibition” (Scios, Inc., priority 2003, published 2006)", "key": {"MM cells [1]": {"system": "MM cells", "assay": "treatment of a patient with multiple myeloma", "format": "in vivo", "settings": "in combination with VELCADE", "source_text": "A patient is diagnosed with multiple myeloma. The patient presents with MM cells with rapid growth rates, which displace osteoblasts, and disrupting the balance of bone creation and destruction. A number of MM-related cytokines, such as IL-6, VEGF, IL-11, and PGE-2 are detectable. […] MM cell growth is inhibited and MM-related cytokine product is reduced. A patient diagnosed with multiple myeloma receives VELCADE and responds well until VELCADE-resistant MM cells develop. Drug resistant MM cells with rapid growth rates begin to populate the bone marrow of the subject. Elevated levels of MM-related cytokines, such as IL-6, VEGF, IL-11, and PGE-2 are again detectable."}, "HSP-27": {"system": "HSP-27", "assay": "immunodetection of phospho-HSP-27 in MM cells and BMSC", "format": "cell-based", "method": "(§1) Total cell lysates are immunoprecipitated with anti-MAPKAPK-2 antibody and subjected to in vitro kinase assays using purified GST-Hsp27 as substrate. To examine Hsp27 phosphorylation in MM and transformed B cells, U266, IM9 and RPMI8226 cells are incubated either with DMSO or with 0.5 μM of a p38 MAPK inhibitor and cell lysates are immunoblotted with antibodies to phospho-Hsp27 (Ser 82) and Hsp27.\nU266, IM9 and RPMI8226 cells are incubated with 0.5 μM of the p38 MAPK inhibitor for 1hour and Hsp27 proteins are immunoprecipitated with agarose-conjugated Hsp27 antibody, followed by immunoblotting with anti-phospho Hsp27 (Ser 78) antibody.\n(§2) Specific antibodies to p38 MAP kinase are from Santa Cruz Biotechnology (Santa Cruz, Calif.). Antibodies to phospho-p38 MAP kinase (T180/Y182) and phospho-Hsp27 (S82) are from Cell Signaling (Beverly, Mass.). Antibodies to Hsp27 and phospho-Hsp27 (S78) are from Upstate Biotechnology (Lake Placid, N.Y.). Anti-MAPKAPK-2 is from StressGen (San Diego, Calif.) while anti-GAPDH is from Biogenesis Ltd. (Poole, UK)."}, "RANKL mRNA": {"system": "RANKL mRNA", "assay": "RANKL mRNA induction in BMSC and MM/BMSC cultures", "format": "cell-based", "settings": "100 nM", "method": "In addition, 100 nM of these p38 MAPK inhibitors blocks the weaker induction of RANKL by IL-6 in BMSC."}, "MM cells [2]": {"system": "MM cells", "assay": "MM cell viability and proliferation with proteasome inhibitor MG-132", "format": "cell-based", "settings": "for proliferation: MG-132 alone"}, "MM/BMSC co-cultures": {"system": "MM/BMSC co-cultures", "assay": "MM cell proliferation in MM/BMSC co-cultures with MG-132", "format": "cell-based", "settings": "MM cells co-cultured with BMSC; FIG. 7", "method": "Thus, proteasome inhibitors such as VELCADE might be limiting their own ability to induce apoptosis of MM cells by inducing growth-supporting activity in the microenvironment. Inhibition of the p38 response by BMSC would counteract this support.\nFor these studies, U266, IM9 and RPMI8226 cells are incubated with DMSO (−) or with 0.5 μM of a disclosed p38 MAPK inhibitor (+) for 1 hour and cell lysates are immunoblotted with antibodies to phospho-p38 and p38 MAP kinase by Western analysis. U266B1 and RPMI8226 are MM cell lines, and IM9 is an Epstein Barr Virus (EBV)-transformed B cell line with characteristics of MM cells. All can be obtained from American Type Culture Collection (ATCC; Rockville, Md.). All cell lines are maintained in RPMI-1640 (ATCC), supplemented with 10% fetal bovine serum (Hyclone; Logan, Utah), 100 units/ml of penicillin, 100 μg/ml streptomycin and 2 mM L-glutamine (Life Technologies, Inc.; Grand Island, N.Y.). BMSC (Cambrex) are maintained in Myelocult H5100 supplemented with 10^−6 M hydrocortisone (Stem Cell Technologies; Vancouver, B.C.), 100 units/ml of penicillin and 100 μg/ml streptomycin. MM cells are usually seeded at a density of 3×10^4 cells/well in 96-well culture plates. For MM co-cultures, BMSC are first seeded at 1.2×10^4 cells/well in a 96-well plate in Myelocult/hydrocortisone medium for 24 hours prior to the addition of MM cells."}, "MAPKAPK-2": {"system": "MAPKAPK-2", "assay": "MAPKAPK-2 in vitro kinase assay on immunoprecipitates of cell lysates, GST-Hsp27 substrate", "format": "cell-based", "settings": "0.5 μM", "method": "as §1"}, "Hsp27": {"system": "Hsp27", "assay": "Western blot of heat shock protein levels in MM cells", "format": "cell-based", "method": "as §1\nCells are collected at various times and lysates are examined by Western Blot analysis using specific antibodies against particular proteins, with GAPDH as loading control. Specific antibodies to Hsp70 and Hsp90 are from Santa Cruz Biotechnology (Santa Cruz, Calif.).\nThe Western blots are examined for the total Hsp27 and phospho-Hsp27 levels at three different exposure times. […] This is consistent with observations made previously in MM.1S cells. […] This phenomenon appears to be unique to Hsp27 since a decrease in the levels of Hsp70 or Hsp90 in these same samples is not observed. […] The decrease of phospho-Hsp27 levels in the PS-341-treated cells is commensurate with the decrease of total Hsp27 protein in these cells."}, "p38α MAPK": {"target": "T1, p38α MAPK (Homo sapiens, UniProt Q16539)", "T1 construct": "endogenous in cells; host or cells: U266, IM9, RPMI8226 cells; BMSC", "T1 sequence (Q16539 whole entry)": "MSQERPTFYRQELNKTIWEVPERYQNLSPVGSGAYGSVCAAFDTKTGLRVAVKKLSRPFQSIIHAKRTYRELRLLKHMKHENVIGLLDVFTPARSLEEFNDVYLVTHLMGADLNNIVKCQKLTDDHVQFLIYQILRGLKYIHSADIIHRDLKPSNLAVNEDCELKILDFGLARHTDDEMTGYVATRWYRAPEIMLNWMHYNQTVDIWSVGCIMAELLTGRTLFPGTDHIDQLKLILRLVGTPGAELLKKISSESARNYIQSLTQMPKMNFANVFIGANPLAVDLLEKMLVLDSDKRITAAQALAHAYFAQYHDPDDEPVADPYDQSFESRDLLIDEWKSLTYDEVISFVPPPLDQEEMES", "assay": "p38α phospho-specific immunodetection in MM cells and BMSC", "format": "cell-based", "settings": "BMSC treated with MG-132", "source_text": "as §2"}, "[3]": {"system": "calpains, cathepsins, and other lysosomal enzymes", "settings": "cited from earlier work"}, "RPMI8226 cells": {"system": "RPMI8226 cells", "assay": "apoptosis by Annexin V-PE flow cytometry in RPMI8226 cells", "format": "cell-based", "method": "Cells are collected at indicated times and assayed.\n(§3) Detection of apoptotic cells was performed by staining with Annexin V-Phycoerythrin (PE) and 7-Amino Actinomycin D (7-AAD) (BD Pharmigen; San Diego, Calif.). Samples are analyzed by dual color flow cytometry using a FACScan laser flow cytometer and Cell Quest software (Becton Dickinson; San Jose, Calif.). 7-AAD is a nucleic acid dye that is used to exclude nonviable cells in flow cytometric assays. Cells that are Annexin V-PE positive and 7-AAD negative are considered early apoptotic. Antibodies to caspase-3, -6, -7, -8, -9, and PARP are from Cell Signaling (Beverly, Mass.)."}, "caspases and PARP": {"system": "caspases and PARP", "assay": "Western blot of caspase activation and PARP cleavage in MM cells", "format": "cell-based", "settings": "RPMI8226; increasing duration of PS-341 treatment", "method": "as §3\nProtein lysates from RPMI8226 cells obtained at these time points are collected in parallel and examined for Hsp27 levels, caspase activation and PARP cleavage by Western blot analysis."}, "[4]": {"settings": "MM patients; cited from earlier work"}, "[5]": {"settings": "RPMI8226, 10 nM PS-341, 8 hours"}}, "note": "Entries after “also recorded” stand apart in the source; their conditions may differ. Where a name gives a salt, the structure may show the parent alone. Residues, ends and D or L forms follow the SMILES beside them. *: point of attachment. Cbz = O=C(OCc1ccccc1)*", "data": [{"smiles": "C[C@@H]1CN(Cc2ccc(F)cc2)[C@@H](C)CN1C(=O)c1cc2c(C(=O)C(=O)N(C)C)cn(C)c2cc1Cl", "note": "[Compound 57 hydrochloride salt]", "values": [{"measurement": "sensitivity of the MM cells to VELCADE", "setting": "MM cells [1]; patient with VELCADE-resistant MM", "value": "restores the sensitivity"}, {"measurement": "MM-related cytokine product", "setting": "MM cells [1]; patient", "value": "reduced"}, {"measurement": "MM cell growth", "setting": "MM cells [1]; patient, listed as Compound 57 in the hydrochloric salt form", "value": "again inhibited"}]}, {"smiles": "C[C@@H]1CN(Cc2ccc(F)cc2)[C@@H](C)CN1C(=O)c1cc2c(C(=O)C(=O)N(C)C)cn(C)c2cc1Cl", "note": "[Compound 57]", "values": [{"measurement": "phosphorylation of HSP-27", "setting": "HSP-27; BMSC", "value": "blocked phosphorylation of HSP-27 completely"}, {"measurement": "phosphorylation of HSP-27", "setting": "HSP-27; MM cells", "value": "blocked phosphorylation of HSP-27 completely"}, {"measurement": "Hsp27 phosphorylation", "setting": "HSP-27; U266, IM9 and RPMI8226, 0.5 μM, cell lysates or immunoprecipitation", "value": "inhibits"}, {"measurement": "Hsp27 phosphorylation", "setting": "HSP-27; both drugs (PS-341 and p38 MAPK inhibitor), all time points", "value": "complete inhibition"}, {"measurement": "induction of RANKL by IL-6", "setting": "RANKL mRNA; BMSC", "value": "blocks"}, {"measurement": "induction of RANKL mRNA by TGFβ and IL-1", "setting": "RANKL mRNA; BMSC and MM/BMSC cultures, FIG. 5", "value": "blocked this induction"}, {"measurement": "basal expression of RANKL mRNA", "setting": "RANKL mRNA; FIG. 5", "value": "blocked"}, {"measurement": "IM9 proliferation", "setting": "MM cells [2]; MG-132 in the presence of the p38 MAPK inhibitor, related to the dose of both", "value": "reduced or entirely blocked"}, {"measurement": "effect on the reduction of MM cell viability and proliferation caused by MG-132", "setting": "MM cells [2]; co-exposure with MG-132, MM cells, FIG. 6", "value": "enhanced the reduction of MM cell viability and proliferation; also recorded: enhances the anti-proliferative effect"}, {"measurement": "effect on the ability of MG-132 to reduce MM cell proliferation", "setting": "MM/BMSC co-cultures", "value": "enhanced the ability of MG-132 to reduce MM cell proliferation; also recorded: enhances the anti-proliferative effect"}, {"measurement": "activity of downstream substrate MAPKAPK-2", "setting": "MAPKAPK-2", "value": "suppresses"}, {"measurement": "total Hsp27", "setting": "Hsp27; 0.5 μM with 10 nM PS-341, 12 and 16 hours, RPMI8226 and IM9 cells", "value": "enhanced reduction"}, {"measurement": "total Hsp27 levels", "setting": "Hsp27; inhibitor alone, even after prolonged incubation", "value": "does not affect"}]}, {"smiles": "CC(C)C[C@@H](C=O)NC(=O)[C@H](CC(C)C)NC(=O)[C@H](CC(C)C)NC(=O)OCc1ccccc1", "note": "[MG-132, Carbobenzoxy-L-Leucyl-L-Leucyl-L-Leucinal, reference compound] (Cbz-Leu-Leu-Leu-aldehyde)", "values": [{"measurement": "activation of p38", "setting": "p38α MAPK", "value": "resulted in activation of p38"}, {"measurement": "proliferation", "setting": "MM cells [2]; HS Sultan MM cells", "value": "block completely"}, {"measurement": "sensitivity of proliferation to MG-132 alone", "setting": "MM cells [2]; IM9 MM cells", "value": "not sensitive"}, {"measurement": "proliferation", "setting": "MM cells [2]; U266 MM cells", "value": "block completely"}, {"measurement": "concentrations with activity against calpains, cathepsins and other lysosomal enzymes, above those used in the disclosed experiments", "setting": "[3]", "value": "≥ 10 -fold"}]}, {"smiles": "CC(C)C[C@H](NC(=O)[C@H](Cc1ccccc1)NC(=O)c1cnccn1)B(O)O", "note": "[PS-341]", "values": [{"measurement": "Hsp27 protein levels", "setting": "Hsp27; RPMI8226, 10 nM PS-341, 12 and 16 hours", "value": "reduced"}, {"measurement": "Hsp27 expression", "setting": "Hsp27; [5]", "value": "induced"}, {"measurement": "Hsp70 expression", "setting": "Hsp27; [5]", "value": "induced"}, {"measurement": "decrease in the levels of Hsp70 or Hsp90", "setting": "Hsp27; RPMI8226, 10 nM PS-341, same samples", "value": "not observed"}, {"measurement": "apoptotic cells", "setting": "RPMI8226 cells; 10 nM PS-341, 8 hours", "value": "early apoptotic cells are apparent"}, {"measurement": "apoptotic cells", "setting": "RPMI8226 cells; 10 nM PS-341, 12 hours", "value": "about half the cells"}, {"measurement": "apoptotic cells", "setting": "RPMI8226 cells; 10 nM PS-341, 16 hours", "value": "most"}, {"measurement": "PARP cleavage", "setting": "caspases and PARP", "value": "proportional increase"}, {"measurement": "activation or cleavage of procaspases-8, -9, -3, -6, and -7", "setting": "caspases and PARP", "value": "successively increasing activation or cleavage"}, {"measurement": "clinically observed circulating concentration", "setting": "[4]", "value": "40 to 100", "unit": "nM"}]}]}
